# According to patent publication US20240301003A1 (NoNO Inc., priority 2021, published 2024):
# Where a SMILES comes first, the peptide text is derived from it. Where no end group is shown, it is not given here. [ ]: non-standard residue; d: D form.
# Legend:
# plasmin [1] = test: peptides in PBS challenged with 10 ug/ml plasmin; conditions: 37 C, up to 30 minutes
# plasmin [2] = test: 10 ug/mL plasmin; conditions: up to 45 minutes
# plasmin [3] = biological target: T1, plasmin (Homo sapiens, UniProt P00747); test: Plasmin sensitivity: peptides in PBS challenged with 10 ug/ml plasmin, HPLC; conditions: 10 ug/mL plasmin, 45 minutes (FIG. 29)
# T1 sequence (P00747 581-810 limits assumed, species assumed): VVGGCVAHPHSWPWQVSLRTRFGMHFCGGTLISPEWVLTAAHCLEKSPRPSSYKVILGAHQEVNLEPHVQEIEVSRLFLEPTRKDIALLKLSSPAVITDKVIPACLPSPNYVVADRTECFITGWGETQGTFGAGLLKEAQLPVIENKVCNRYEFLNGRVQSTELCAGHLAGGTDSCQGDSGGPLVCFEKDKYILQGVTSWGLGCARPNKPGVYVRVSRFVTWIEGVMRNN
# T1 sequence (P00747 97-580 partner limits assumed, species assumed): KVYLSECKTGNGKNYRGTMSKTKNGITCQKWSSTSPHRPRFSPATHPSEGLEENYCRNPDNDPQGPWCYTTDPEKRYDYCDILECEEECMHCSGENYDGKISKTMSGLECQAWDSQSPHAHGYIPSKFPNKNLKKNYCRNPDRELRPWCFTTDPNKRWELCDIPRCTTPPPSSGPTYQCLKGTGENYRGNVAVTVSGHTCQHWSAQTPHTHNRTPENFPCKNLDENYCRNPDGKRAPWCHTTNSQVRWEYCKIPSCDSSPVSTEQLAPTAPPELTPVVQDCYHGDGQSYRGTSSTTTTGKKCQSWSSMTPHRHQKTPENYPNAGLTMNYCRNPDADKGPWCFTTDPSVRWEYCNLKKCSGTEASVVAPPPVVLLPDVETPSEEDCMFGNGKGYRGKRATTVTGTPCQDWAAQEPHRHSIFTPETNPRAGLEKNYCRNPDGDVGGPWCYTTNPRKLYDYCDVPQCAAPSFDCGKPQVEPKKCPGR
# histamine release = test: Histamine release in rats, plasma histamine ELISA; conditions: co-administration of lodoxamide (0.6 mg/kg)
# Experimental: Histamine levels were quantified by using commercially available histamine ELISA assay kit (Histamine ELISA-H1531-K01, Eagle Bioscience). The plates were coated with the plasma samples (50 ul/well) incubated for 60 minutes at room temperature on an orbital shaker with medium frequency. Then 100 ul of enzyme conjugate was added to the wells and incubated for 20 minutes at room temperature. […] The reaction was stopped with 100 ul H2SO4. Absorbance was determined on an ELISA plate reader at 450 nm.
# Blood samples were taken at pre-injection and at 0, 1, 2.5, 5, 10, 15, 30- and 60-minutes post dose and used for histamine levels quantification using commercially available kit.
# PSD95PDZ2 = PSD95PDZ2 (Homo sapiens, UniProt P78352); test: Competitive ELISA with biotinylated-NA-1; conditions: PSD-95 domain 2, FIG. 12
# Sequence of PSD95PDZ2 (P78352 160-246 limits assumed): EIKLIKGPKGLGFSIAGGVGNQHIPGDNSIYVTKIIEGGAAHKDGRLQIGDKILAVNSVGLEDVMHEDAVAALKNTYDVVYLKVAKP
# [4] = Pharmacokinetic analysis in rats (subcutaneous, pulmonary instillation, intravenous, intramuscular), HPLC
# Experimental: Rats were anaesthetized in the supine position (Isoflurane 1.5--%) and allowed to breath spontaneously in 0.5 L/min 02. The left femoral artery was cannulated for blood sampling.
# Test agents were prepared at the stablish concentration in a total volume of vehicle. Pulmonary instillation was performed by intubation with a 14G catheter connected to a 1 cc syringe and the test agent will be delivered through the catheter. Subcutaneous (SQ or SC) injection was injected into the area of the left flank, no more than 2 ml of total volume per site.
# Each dose was evaluated in 3 rats for each administration strategy. […] For the first experiment, evaluating two different administration routes (SQ and PI), blood samples were collected at 8 different timepoints: Pre and at 7 additional times (1, 2.5, 5, 10, 15, 30, 60 min) post dose (250 ul/sample).
# HPLC quantification: Plasma was separated from blood and stored at −−−80° C. until used. […] Standard curves for HPLC were generated from plasma samples spiked with known quantities of test agent.
# plasmin [5] = biological target: T1, plasmin; test: in vitro; conditions: isolated enzyme plasmin
# [6] = MTD studies and renal toxicity in rats (creatinine, BUN); conditions: rats, addition of sodium benzoate (NA-3+SB)
compound,measurement,setting,value
YGrKKRrQrRRkLSSIESDV (YG[dR]KKR[dR]Q[dR]RR[dK]LSSIESDV),not cleaved,plasmin [1],essentially 100% intact peptide after 30 minutes
RKkRrQrrRIESDV,not cleaved,plasmin [2],no degradation observed in 45 minutes
YGRKkRRqRRrKLSSIESDV (YGRK[dK]RR[dQ]RR[dR]KLSSIESDV),not cleaved,plasmin [1],essentially 100% intact peptide after 30 minutes
"CC[C@H](C)[C@H](NC(=O)[C@H](CCCNC(=N)N)NC(=O)[C@H](CCCNC(=N)N)NC(=O)[C@@H](CCCNC(=N)N)NC(=O)[C@H](CCC(N)=O)NC(=O)[C@@H](CCCNC(=N)N)NC(=O)[C@H](CCCNC(=N)N)NC(=O)[C@H](CCCCN)NC(=O)[C@H](CCCCN)NC(=O)[C@H](N)CCCNC(=N)N)C(=O)N[C@@H](CCC(=O)O)C(=O)N[C@@H](CO)C(=O)N[C@@H](CC(=O)O)C(=O)N[C@H](C(=O)O)C(C)C [NoNO 415, rKKRrQrRRIESDV] (HELM PEPTIDE1{[dR].K.K.R.[dR].Q.[dR].R.R.I.E.S.D.V}$$$$V2.0)",plasmin resistance,plasmin [3],resistance to plasmin
rKKRrQrRRIESDV,not cleaved,plasmin [2],no degradation observed in 45 minutes
"N#Cc1cc(NC(=O)C(=O)O)c(Cl)c(NC(=O)C(=O)O)c1 [lodoxamide, 2-[2-chloro-5-cyano-3-(oxaloamino)anilino]-2-oxoacetic acid, reference compound]",effect on histamine induced by D-Tat-L-2B9C at 7.6 mg/kg IV,histamine release,abrogated
"CC[C@H](C)[C@H](NC(=O)[C@@H](CCCNC(=N)N)NC(=O)[C@H](CCCNC(=N)N)NC(=O)[C@@H](CCCNC(=N)N)NC(=O)[C@H](CCC(N)=O)NC(=O)[C@@H](CCCNC(=N)N)NC(=O)[C@@H](CCCNC(=N)N)NC(=O)[C@@H](CCCCN)NC(=O)[C@@H](CCCCN)NC(=O)[C@@H](N)CCCNC(=N)N)C(=O)N[C@@H](CCC(=O)O)C(=O)N[C@@H](CO)C(=O)N[C@@H](CC(=O)O)C(=O)N[C@H](C(=O)O)C(C)C [NoNO 411, RkkrrQrRrIESDV] (HELM PEPTIDE1{R.[dK].[dK].[dR].[dR].Q.[dR].R.[dR].I.E.S.D.V}$$$$V2.0; N-terminus and C-terminus assumed)",plasmin resistance,plasmin [3],resistance to plasmin
"CC[C@@H](C)[C@@H](NC(=O)[C@@H](CO)NC(=O)[C@@H](CO)NC(=O)[C@@H](CC(C)C)NC(=O)[C@@H](CCCCN)NC(=O)[C@@H](CCCNC(=N)N)NC(=O)[C@@H](CCCNC(=N)N)NC(=O)[C@@H](CCCNC(=N)N)NC(=O)[C@@H](CCC(N)=O)NC(=O)[C@@H](CCCNC(=N)N)NC(=O)[C@@H](CCCNC(=N)N)NC(=O)[C@@H](CCCCN)NC(=O)[C@@H](CCCCN)NC(=O)[C@@H](CCCNC(=N)N)NC(=O)CNC(=O)[C@H](N)Cc1ccc(O)cc1)C(=O)N[C@H](CCC(=O)O)C(=O)N[C@H](CO)C(=O)N[C@H](CC(=O)O)C(=O)N[C@@H](C(=O)O)C(C)C [D-NA-1, ygrkkrrqrrrklssiesdv] (HELM PEPTIDE1{[dY].G.[dR].[dK].[dK].[dR].[dR].[dQ].[dR].[dR].[dR].[dK].[dL].[dS].[dS].[dI].[dE].[dS].[dD].[dV]}$$$$V2.0)",EC50 (compared between peptides),PSD95PDZ2,about ten-fold lower
same,plasma concentration and plasma exposure relative to intrapulmonary NA-1,[4]; pulmonary instillation,higher plasma concentration and a greater plasma exposure
same,AUC compared with subcutaneous NA-1,[4]; subcutaneous 25 mg/kg,increased Cmax and AUC relative to subcutaneous NA-1 but not to the same extent
same,Cmax compared with subcutaneous NA-1,[4]; subcutaneous 25 mg/kg,increased Cmax and AUC relative to subcutaneous NA-1 but not to the same extent
CC[C@H](C)[C@H](NC(=O)[C@H](CO)NC(=O)[C@H](CO)NC(=O)[C@H](CC(C)C)NC(=O)[C@H](CCCCN)NC(=O)[C@@H](CCCNC(=N)N)NC(=O)[C@H](CCCNC(=N)N)NC(=O)[C@H](CCCNC(=N)N)NC(=O)[C@@H](CCC(N)=O)NC(=O)[C@H](CCCNC(=N)N)NC(=O)[C@H](CCCNC(=N)N)NC(=O)[C@@H](CCCCN)NC(=O)[C@H](CCCCN)NC(=O)[C@H](CCCNC(=N)N)NC(=O)CNC(=O)[C@@H](N)Cc1ccc(O)cc1)C(=O)N[C@@H](CCC(=O)O)C(=O)N[C@@H](CO)C(=O)N[C@@H](CC(=O)O)C(=O)N[C@H](C(=O)O)C(C)C [NA-411.4] (HELM PEPTIDE1{Y.G.R.K.[dK].R.R.[dQ].R.R.[dR].K.L.S.S.I.E.S.D.V}$$$$V2.0; N-terminus and C-terminus assumed),"remaining at 0.5 h, 65 ug/ml",plasmin [5],~100%
RkkrrQrRrIESDV (HELM PEPTIDE1{R.[dK].[dK].[dR].[dR].Q.[dR].R.[dR].I.E.S.D.V}$$$$V2.0; N-terminus and C-terminus assumed; SMILES CC[C@H](C)[C@H](NC(=O)[C@@H](CCCNC(=N)N)NC(=O)[C@H](CCCNC(=N)N)NC(=O)[C@@H](CCCNC(=N)N)NC(=O)[C@H](CCC(N)=O)NC(=O)[C@@H](CCCNC(=N)N)NC(=O)[C@@H](CCCNC(=N)N)NC(=O)[C@@H](CCCCN)NC(=O)[C@@H](CCCCN)NC(=O)[C@@H](N)CCCNC(=N)N)C(=O)N[C@@H](CCC(=O)O)C(=O)N[C@@H](CO)C(=O)N[C@@H](CC(=O)O)C(=O)N[C@H](C(=O)O)C(C)C),not cleaved,plasmin [2],no degradation observed in 45 minutes
YGrKKRrQRRrKLSSIESDV (YG[dR]KKR[dR]QRR[dR]KLSSIESDV),not cleaved,plasmin [1],essentially 100% intact peptide after 30 minutes
"CC[C@H](C)[C@H](NC(=O)[C@H](CCCNC(=N)N)NC(=O)[C@@H](CCCNC(=N)N)NC(=O)[C@@H](CCCNC(=N)N)NC(=O)[C@H](CCC(N)=O)NC(=O)[C@@H](CCCNC(=N)N)NC(=O)[C@H](CCCNC(=N)N)NC(=O)[C@@H](CCCCN)NC(=O)[C@H](CCCCN)NC(=O)[C@@H](N)CCCNC(=N)N)C(=O)N[C@@H](CCC(=O)O)C(=O)N[C@@H](CO)C(=O)N[C@@H](CC(=O)O)C(=O)N[C@H](C(=O)O)C(C)C [NoNO 414, RKkRrQrrRIESDV] (HELM PEPTIDE1{R.K.[dK].R.[dR].Q.[dR].[dR].R.I.E.S.D.V}$$$$V2.0)",plasmin resistance,plasmin [3],resistance to plasmin
"O=C([O-])c1ccccc1.[Na+] [sodium benzoate, reference compound]",effect on creatinine and BUN levels induced by 25 mg/kg NA-3,[6],reduces the creatinine and BUN levels
CC[C@H](C)[C@H](NC(=O)[C@H](CO)NC(=O)[C@H](CO)NC(=O)[C@H](CC(C)C)NC(=O)[C@H](CCCCN)NC(=O)[C@@H](CCCNC(=N)N)NC(=O)[C@H](CCCNC(=N)N)NC(=O)[C@H](CCCNC(=N)N)NC(=O)[C@H](CCC(N)=O)NC(=O)[C@@H](CCCNC(=N)N)NC(=O)[C@H](CCCNC(=N)N)NC(=O)[C@H](CCCCN)NC(=O)[C@H](CCCCN)NC(=O)[C@@H](CCCNC(=N)N)NC(=O)CNC(=O)[C@@H](N)Cc1ccc(O)cc1)C(=O)N[C@@H](CCC(=O)O)C(=O)N[C@@H](CO)C(=O)N[C@@H](CC(=O)O)C(=O)N[C@H](C(=O)O)C(C)C [NA-4.4.1] (HELM PEPTIDE1{Y.G.[dR].K.K.R.[dR].Q.R.R.[dR].K.L.S.S.I.E.S.D.V}$$$$V2.0; N-terminus and C-terminus assumed),"remaining at 0.5 h, 65 ug/ml",plasmin [5],~100%
